Entries after “also recorded” stand apart in the source; their conditions may differ.
Tests used:
MMP-1 = details: dermal fibroblasts; cited from earlier work
collagen 1 = details: dermal fibroblasts; cited from earlier work
[1] = test system: rabbit ear hypertrophic scarring model; details: topical application to skin tissue; cited from earlier work
[2] = target: T1, aryl hydrocarbon receptor (AhR) (Homo sapiens, UniProt P35869); details: cited from earlier work
T1 sequence (P35869 11-848): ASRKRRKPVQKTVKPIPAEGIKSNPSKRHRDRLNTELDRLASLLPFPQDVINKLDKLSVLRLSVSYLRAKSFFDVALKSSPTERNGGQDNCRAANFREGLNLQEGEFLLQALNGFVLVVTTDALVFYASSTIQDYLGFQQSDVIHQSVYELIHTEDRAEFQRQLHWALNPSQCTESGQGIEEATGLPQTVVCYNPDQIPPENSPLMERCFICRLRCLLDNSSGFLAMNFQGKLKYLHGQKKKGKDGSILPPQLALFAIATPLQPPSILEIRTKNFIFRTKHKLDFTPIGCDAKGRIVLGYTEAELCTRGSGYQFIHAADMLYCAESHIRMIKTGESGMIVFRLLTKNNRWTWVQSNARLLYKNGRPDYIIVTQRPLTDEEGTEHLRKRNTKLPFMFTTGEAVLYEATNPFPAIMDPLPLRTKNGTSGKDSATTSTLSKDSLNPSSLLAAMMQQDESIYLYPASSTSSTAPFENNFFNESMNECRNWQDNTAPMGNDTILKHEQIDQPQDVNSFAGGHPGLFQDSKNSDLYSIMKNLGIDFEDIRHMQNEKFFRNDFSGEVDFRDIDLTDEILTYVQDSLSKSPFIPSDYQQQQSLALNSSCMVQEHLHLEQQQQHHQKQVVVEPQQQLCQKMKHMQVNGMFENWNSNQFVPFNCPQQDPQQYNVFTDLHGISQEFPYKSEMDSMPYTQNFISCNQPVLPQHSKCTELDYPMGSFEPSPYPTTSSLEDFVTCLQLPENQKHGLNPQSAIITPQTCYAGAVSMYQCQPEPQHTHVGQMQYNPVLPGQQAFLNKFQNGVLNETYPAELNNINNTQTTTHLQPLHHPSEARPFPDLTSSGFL

[3] = test system: rhytids and wrinkles on the face; assay: Topical use of 0.5% kynurenic acid cream on facial rhytids and wrinkles (self-reported, visual inspection); assay type: in vivo, human; details: person, approx. 3 mg per application
Text: (§1) Initial dermatological effects can be followed by visual inspection of the site.
as §1

MMP-3 = details: dermal fibroblasts; cited from earlier work
fibronectin = details: dermal fibroblasts; cited from earlier work
[4] = test system: UVB-induced wrinkle formation; details: animal model (Kim, 2022); cited from earlier work

Compound | MMP-1 expression (MMP-1) | collagen 1 expression (collagen 1) | MMP-1 relative to controls [1] | collagen relative to controls [1] | AhR agonist / antagonist activity [2] | visibility of rhytids and wrinkles (user-reported) ([3]; topical cream 0.5% kynurenic acid by weight once a day, approx. 80 micrograms per square cm, after a 2-month period) | appearance and visibility of rhytids and wrinkles (subject-reported) ([3]; topical cream 0.5% kynurenic acid by weight twice daily, approx. 60 micrograms per square cm, approx. two-month period) | MMP-3 expression (MMP-3) | fibronectin expression (fibronectin) | UVB-induced wrinkle formation [4]
Nc1ccccc1C(=O)CC(N)C(=O)O (racemic) [kynurenine] | increase MMP production | suppress collagen production | increased | decreased | AhR agonists |  |  |  |  | 
O=C(O)c1cc(=O)c2ccccc2[nH]1 [kynurenic acid] | increase expression; also recorded: increase MMP production; also recorded: upregulate | downregulate; also recorded: suppress collagen production |  |  |  | less visible and less noticeable | perceptible and noticeable reduction | increase expression; also recorded: upregulate | downregulate | 
Nc1nc2ncc(CNc3ccc(C(=O)N[C@@H](CCC(=O)O)C(=O)O)cc3)nc2c(=O)[nH]1 [folic acid] |  |  |  |  | AhR antagonists |  |  |  |  | helped reduce; also recorded: ameliorated
vitamin B12 |  |  |  |  | AhR antagonists |  |  |  |  | helped reduce; also recorded: ameliorated
